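1) Cells in 96-well plates. 2) Compound, 48 h, 5 concentrations. 3) Linear interpolation between surrounding doses. 4) Unreached endpoint = highest concentration. GI50 = concentration required for 50% inhibition of growth. TGI: concentration producing complete growth inhibition.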
Columns and labels:
Test in all cases: DTP human tumour cell line panel, 48 h
[1] = system: ACHN renal
[2] = system: HL-60(TB) leukemia
[3] = system: MALME-3M melanoma
[4] = system: MOLT-4 leukemia
[5] = system: OVCAR-4 ovarian
[6] = system: SN12C renal
[7] = system: UO-31 renal
[8] = system: A498 renal
[9] = system: MCF7 breast
[10] = system: NCI/ADR-RES ovarian

SMILES | TGI [1] | TGI [2] | TGI [3] | TGI [4] | TGI [5] | TGI [6] | TGI [7] | TGI [8] | GI50 [8] | GI50 [1] | GI50 [2] | GI50 [3] | GI50 [4] | GI50 [5] | GI50 [6] | GI50 [7] | TGI [9] | GI50 [10] | TGI [10] | GI50 [9]
CN1CCN(c2nc(N)c(Br)c(Cl)n2)CC1 | > 100 µM | > 100 µM | > 100 µM | > 100 µM | > 100 µM | > 100 µM | > 100 µM | – | – | – | – | – | – | – | – | – | – | – | – | –
CC(=O)CC(=O)Nc1ccccc1C(F)(F)F | > 100 µM | > 100 µM | > 100 µM | > 100 µM | > 100 µM | > 100 µM | > 100 µM | > 100 µM | – | – | – | – | – | – | – | – | – | – | – | –
CC(=O)[CH-]C(=O)c1ccccc1.CC(=O)[CH-]C(=O)c1ccccc1.CC(=O)[CH-]C(=O)c1ccccc1.[Ga+3] | > 100 µM | 36.1 µM | 19.5 µM | 30.4 µM | 34.5 µM | 33.2 µM | 76.2 µM | 45.6 µM | 24.7 µM | 30.3 µM | 11.8 µM | 2.61 µM | 9.64 µM | 17.1 µM | 15 µM | 26.7 µM | – | – | – | –
Cc1ccc(Nc2nc(-c3ccc(-c4ccc([N+](=O)[O-])cc4)o3)cs2)cc1 | > 100 µM | > 100 µM | > 100 µM | > 100 µM | > 100 µM | > 100 µM | > 100 µM | – | – | – | – | – | – | – | – | – | – | – | – | –
COc1ccc(C(=O)C(C(=O)C(=O)NCCCNC(=O)C(=O)C(C(=O)c2ccc(OC)cc2)c2ccc(OC)cc2)c2ccc(OC)cc2)cc1 (centres undefined) | – | > 100 µM | > 100 µM | > 100 µM | > 100 µM | – | > 100 µM | – | – | – | – | – | – | – | – | – | – | – | – | –
Cc1cc(Br)ccc1N=Nc1c(C)nn(-c2ccccc2)c1-c1ccccc1 | > 100 µM | > 100 µM | > 100 µM | > 100 µM | > 100 µM | > 100 µM | > 100 µM | > 100 µM | – | – | – | – | – | – | – | – | – | – | – | –
O=C(NC1=C(Cl)C(=O)c2ccccc2C1=O)C(=O)C(C(=O)c1ccc2ccccc2c1)C1OC(=O)c2ccccc21 (centres undefined) | 21.1 µM | 7.6 µM | 4.16 µM | 14.1 µM | 19.8 µM | 16.3 µM | 29.4 µM | 18.4 µM | – | – | – | – | – | – | – | – | 16.8 µM | – | – | –
CCN(CC)c1ccc(C2N3CCCCC3[C@@H]3c4[nH]c5ccccc5c4CCN23)cc1 (some centres undefined) | 74.7 µM | 30.8 µM | 47.4 µM | > 100 µM | > 100 µM | 51.6 µM | > 100 µM | 28.2 µM | – | – | – | – | – | – | – | – | – | – | – | –
CN(C)N=Nc1ccc(S(N)(=O)=O)cc1 | > 100 µM | – | > 100 µM | > 100 µM | > 100 µM | > 100 µM | > 100 µM | > 100 µM | – | – | – | – | – | – | – | – | – | – | – | –
CC12CCc3ccccc3C1=NNC(=O)C2 (centres undefined) | > 100 µM | > 100 µM | > 100 µM | > 100 µM | > 100 µM | > 100 µM | > 100 µM | > 100 µM | – | – | – | – | – | – | – | – | – | – | – | –
CC1=C2C=CC(=O)C[C@@]2(C)CCC1 | > 100 µM | > 100 µM | > 100 µM | > 100 µM | > 100 µM | > 100 µM | > 100 µM | > 100 µM | – | – | – | – | – | – | – | – | – | – | – | –
COc1cc(O)c(C(=O)/C=C/c2ccc(OC)c(OCc3ccccc3)c2)c(OC)c1 | > 100 µM | > 100 µM | – | > 100 µM | > 100 µM | > 100 µM | > 100 µM | – | – | – | – | – | – | – | – | – | – | – | – | –
NC(=O)c1ncn(C2OC(CO)C(O)C2O)c1O (centres undefined) | > 100 µM | > 100 µM | > 100 µM | > 100 µM | > 100 µM | > 100 µM | > 100 µM | > 100 µM | – | – | – | – | – | – | – | – | – | – | – | –
CC(=O)OCC1OC(n2c(=S)n(-c3ccccc3)c(=O)c3cc(Br)ccc32)C(OC(C)=O)C1OC(C)=O (centres undefined) | > 100 µM | – | > 100 µM | > 100 µM | > 100 µM | > 100 µM | > 100 µM | > 100 µM | – | – | – | – | – | – | – | – | – | – | – | –
O=C(C(=CN1CCN(C(=O)c2ccco2)C1=S)C(=O)c1ccccc1)c1ccccc1 | 16.5 µM | 34.9 µM | 43.3 µM | > 50 µM | 42.8 µM | 14.4 µM | 18.7 µM | – | – | 5.75 µM | 9.89 µM | 3.05 µM | 15.2 µM | 16.1 µM | 6.07 µM | 8.71 µM | – | 9.18 µM | 19 µM | –
O=C1[C@@H]2C(c3ccccc3[N+](=O)[O-])=NO[C@@H]2C(=O)N1c1ccc(Cc2ccc(N3C(=O)[C@H]4C(c5ccccc5[N+](=O)[O-])=NO[C@H]4C3=O)cc2)cc1 | > 100 µM | – | > 100 µM | > 100 µM | > 100 µM | > 100 µM | > 100 µM | > 100 µM | – | – | – | – | – | – | – | – | – | – | – | –

SMILES | TGI [1] | TGI [2] | TGI [3] | TGI [4] | TGI [5] | TGI [6] | TGI [7] | TGI [8] | GI50 [8] | GI50 [1] | GI50 [2] | GI50 [3] | GI50 [4] | GI50 [5] | GI50 [6] | GI50 [7] | TGI [9] | GI50 [10] | TGI [10] | GI50 [9]
COC(=O)c1cc2cc(/C=C3/SC(=S)N(N(C(C)=O)C(C)=O)C3=O)oc2n1Cc1ccccc1 | 35.9 µM | – | – | > 100 µM | > 100 µM | 56 µM | > 100 µM | – | – | 18.3 µM | – | – | 59.9 µM | 38.2 µM | 20.7 µM | 29.7 µM | > 100 µM | 14.4 µM | 35 µM | 34.1 µM
O=C(N/C(=C\c1ccc(/C=C(\NC(=O)c2ccccc2)c2nc3c(O)nc(S)nc3[nH]2)cc1)c1nc2c(O)nc(S)nc2[nH]1)c1ccccc1 | > 100 µM | – | > 100 µM | > 100 µM | > 100 µM | > 100 µM | > 100 µM | > 100 µM | – | – | – | – | – | – | – | – | – | – | – | –
O=C1/C(=C/c2ccc(C(F)(F)F)cc2)COc2ccc(O)c(O)c21 | 2.31 µM | 3.06 µM | 3.3 µM | – | 2.72 µM | 2.5 µM | 1.95 µM | 4.16 µM | 2.11 µM | 1.11 µM | 0.52 µM | 1.55 µM | – | 1.39 µM | 1.15 µM | 0.633 µM | – | 1.8 µM | 6.59 µM | –
N#Cc1ccc(C2SCc3nc4ccccc4n32)cc1 (centres undefined) | > 100 µM | > 100 µM | > 100 µM | > 100 µM | > 100 µM | > 100 µM | 73.6 µM | > 100 µM | – | – | – | – | – | – | – | – | – | – | – | –
CCN(CC)C(=S)SS(C)(=O)=O | 31.8 µM | 26.6 µM | 58.4 µM | 42.8 µM | 34.7 µM | 29.9 µM | 37.3 µM | – | – | – | – | – | – | – | – | – | – | – | – | –
Cc1[nH]c2cc([N+](=O)[O-])ccc2c1[N+](=O)[O-] | 50.3 µM | 55.1 µM | 54.4 µM | 71.4 µM | 92 µM | 95 µM | 36.2 µM | 50.4 µM | – | – | – | – | – | – | – | – | – | – | – | –
CCOC(=O)C1C(=O)CC(=O)C2CCCCC21 (centres undefined) | > 100 µM | > 100 µM | > 100 µM | > 100 µM | > 100 µM | > 100 µM | > 100 µM | > 100 µM | – | – | – | – | – | – | – | – | – | – | – | –
COC(=O)[C@@]12C3=NO[C@]1(C(=O)OC)C(O[Si](C)(C)C(C)(C)C)[C@@H](OC(C)=O)[C@@H](OC(C)=O)[C@@H]2[C@@H](OCc1ccccc1)CC3 (some centres undefined) | > 100 µM | > 100 µM | > 100 µM | > 100 µM | > 100 µM | > 100 µM | > 100 µM | > 100 µM | – | – | – | – | – | – | – | – | – | – | – | –
COc1ccc2c(c1)[n+]([O-])c(-c1ccccc1Cl)c(N)[n+]2[O-] | > 100 µM | > 100 µM | > 100 µM | > 100 µM | > 100 µM | > 100 µM | > 100 µM | > 100 µM | – | – | – | – | – | – | – | – | – | – | – | –
CC(=O)Nc1ccc(/C=c2\sc3nnc(-c4cccnc4)n3c2=O)cc1 | 26.9 µM | 42.9 µM | 37.3 µM | 64.3 µM | 30.7 µM | 31 µM | 24.7 µM | > 100 µM | – | – | – | – | – | – | – | – | – | – | – | –
Cc1ccc(S(=O)(=O)NNS(C)(=O)=O)cc1 | > 100 µM | – | > 100 µM | > 100 µM | > 100 µM | > 100 µM | > 100 µM | – | – | – | – | – | – | – | – | – | – | – | – | –
CC1(C)C(=O)/C=C\C(=O)C(C)(C)C(=O)/C=C\C(=O)C(C)(C)C2=CC=C(O2)C(C)(C)C(=O)/C=C\C1=O | 12.6 µM | 2.24 µM | 4.11 µM | 4.81 µM | 14.8 µM | 14.1 µM | 28.3 µM | 30.9 µM | – | – | – | – | – | – | – | – | 39.8 µM | – | – | –
Cc1ccc(S(=O)(=O)C2CC2(Cl)Cl)cc1 (centres undefined) | 70.8 µM | – | 48.8 µM | 42.1 µM | 13.8 µM | 35.8 µM | > 100 µM | – | – | – | – | – | – | – | – | – | – | – | – | –
CCCCOC(=O)NC(=O)c1cn(CCCOC(=O)CCCCCCCCC(=O)OCCCn2cc(C(=O)NC(=O)OCCCC)c(=O)n(C)c2=O)c(=O)n(C)c1=O | > 100 µM | > 100 µM | > 100 µM | > 100 µM | > 100 µM | > 100 µM | > 100 µM | > 100 µM | – | – | – | – | – | – | – | – | – | – | – | –
CCN(CC)c1c(C)nnn1C1OC(COC(C)=O)C(OC(C)=O)C(OC(C)=O)C1OC(C)=O (centres undefined) | > 100 µM | > 100 µM | > 100 µM | > 100 µM | > 100 µM | > 100 µM | > 100 µM | > 100 µM | – | – | – | – | – | – | – | – | – | – | – | –
O=C(Oc1c(Cl)cc(Cl)cc1Cl)c1ccccc1Nc1ccnc(C(F)(F)F)c1 | 6.52 µM | > 100 µM | – | – | – | 14.5 µM | > 100 µM | – | – | 2.46 µM | 3.97 µM | – | – | – | 3.07 µM | 41 µM | > 100 µM | – | – | 4.68 µM

Source: PubChem BioAssay (NCI)
